In patent publication US8735414B2 (priority 2009, dated 2014) one finds IC50 and melting point data, which are given here for 26 molecules.

Data set [1] has as its system bicistronic HCV replicon (replicon RNA, GenBank Accession No. AJ242654). The experiment in a line: HCV Replicon Assay. In kind it is cell-based. The note with it: Hepatitis C virus, 72 h, read-out: Replicon IC50.

pIC50: −log10 of the molar value.

`C[C@@H](NS(=O)(=O)c1ccc(-c2c(C#N)c3ccc(OC(F)(F)F)cc3n2C2CCCCC2)nc1)C(F)(F)F` [compound 304, 6-[3-cyano-1-cyclohexyl-6-(trifluoromethoxy)-1H-indol-2-yl]-N-[(2R)-1,1,1-trifluoropropan-2-yl]pyridine-3-sulfonamide] gave a melting point of 181 to 183 °C. For the same molecule, the pIC50 in data set [1] was > 6.30.
Turning to `Cc1cc2c(cc1Cl)c(C#N)c(-c1ncc(S(=O)(=O)N[C@@H](C)C(F)(F)F)cn1)n2C1CCC1` [compound 448, 2-(5-chloro-3-cyano-1-cyclobutyl-6-methyl-1H-indol-2-yl)-N-[(2S)-1,1,1-trifluoropropan-2-yl]pyrimidine-5-sulfonamide], the melting point was > 300 °C. For the same molecule, the pIC50 in data set [1] was 5.70 to 6.30.
In the case of `CC(C)(C)NS(=O)(=O)c1ccc(-c2c(C#N)c3cc(F)ccc3n2C2CCC2)nc1` [compound 9, N-tert-butyl-6-(3-cyano-1-cyclobutyl-5-fluoro-1H-indol-2-yl)pyridine-3-sulfonamide], the melting point fell in the range of 181 to 185 °C. Also, the pIC50 in data set [1] was > 6.30.
Molecule `N#Cc1c(-c2ccc(S(=O)(=O)NC(CF)CF)cn2)n(-c2ccccc2)c2ccc(F)cc12` [compound 113, 6-(3-cyano-5-fluoro-1-phenyl-1H-indol-2-yl)-N-(1,3-difluoropropan-2-yl)pyridine-3-sulfonamide] had a melting point of 165 to 168 °C. Moreover, the pIC50 in data set [1] was > 6.30.
`Cc1cc2c(cc1F)c(C(N)=O)c(-c1ccc(S(=O)(=O)N[C@@H](C)C(F)(F)F)cn1)n2-c1cccc(F)n1` [compound 877, 5-fluoro-1-(6-fluoropyridin-2-yl)-6-methyl-2-(5-{[(2S)-1,1,1-trifluoropropan-2-yl]sulfamoyl}pyridin-2-yl)-1H-indole-3-carboxamide] registered a melting point of 210 to 214 °C. Moreover, the pIC50 in data set [1] is > 6.30.
In the case of `C[C@H](NS(=O)(=O)c1cnc(-c2c(C#N)c3ccc(OC(F)F)cc3n2C2CCC2)nc1)C1CC1` [compound 130, 2-[3-cyano-1-cyclobutyl-6-(difluoromethoxy)-1H-indol-2-yl]-N-[(1S)-1-cyclopropylethyl]pyrimidine-5-sulfonamide], the melting point lay within 172 to 174 °C. The pIC50 in data set [1] was > 6.30.
The molecule `COc1ccc2c(C#N)c(-c3ncc(S(=O)(=O)N[C@@H](C)C(F)(F)F)cn3)n(C3CCC3)c2c1` [compound 405, 2-(3-cyano-1-cyclobutyl-6-methoxy-1H-indol-2-yl)-N-[(2S)-1,1,1-trifluoropropan-2-yl]pyrimidine-5-sulfonamide] came in with a melting point of 254 to 255 °C. In addition, the pIC50 in data set [1] was > 6.30.
`Cc1cc2c(cc1F)c(C#N)c(-c1ccc(S(=O)(=O)N[C@@H](C)C(F)(F)F)cn1)n2-c1cccc(Cl)n1` [compound 962, 6-[1-(6-chloropyridin-2-yl)-3-cyano-5-fluoro-6-methyl-1H-indol-2-yl]-N-[(2S)-1,1,1-trifluoropropan-2-yl]pyridine-3-sulfonamide] displayed a melting point of 253 to 257 °C. Also, the pIC50 in data set [1] was > 6.30.
The molecule `CCc1cc2c(cc1F)c(C#N)c(-c1ccc(S(=O)(=O)N[C@@H](C)C(F)(F)F)cn1)n2-c1cccc(C#N)c1` [compound 1012, 6-[3-cyano-1-(3-cyanophenyl)-6-ethyl-5-fluoro-1H-indol-2-yl]-N-[(2S)-1,1,1-trifluoropropan-2-yl]pyridine-3-sulfonamide] displayed a melting point of 244 to 248 °C. The pIC50 in data set [1] was 5.70 to 6.30.
As for `CC(C)n1c(-c2ncc(S(=O)(=O)N[C@@H](C)C3CC3)cn2)c(C#N)c2ccc(OC(F)F)cc21` [compound 207, 2-[3-cyano-6-(difluoromethoxy)-1-(propan-2-yl)-1H-indol-2-yl]-N-[(1S)-1-cyclopropylethyl]pyrimidine-5-sulfonamide], the melting point was 169 to 170 °C. Also, the pIC50 in data set [1] is 5.70 to 6.30.
For the molecule `Cc1cc2c(cc1F)c(C#N)c(-c1ccc(S(=O)(=O)N[C@@H](C)C(F)(F)F)cn1)n2-c1nccs1` [compound 934, 6-[3-cyano-5-fluoro-6-methyl-1-(1,3-thiazol-2-yl)-1H-indol-2-yl]-N-[(2S)-1,1,1-trifluoropropan-2-yl]pyridine-3-sulfonamide], the melting point was 203 to 208 °C. For the same molecule, in data set [1], the pIC50 is > 6.30.
The molecule `Cc1ccc2c(c1)c(C#N)c(-c1ccc(S(=O)(=O)NC3(C(F)(F)F)CC3)cn1)n2C1CCCC1` [compound 313, 6-(3-cyano-1-cyclopentyl-5-methyl-1H-indol-2-yl)-N-[1-(trifluoromethyl)cyclopropyl]pyridine-3-sulfonamide] had a melting point of 209 to 214 °C. The pIC50 in data set [1] is > 6.30.
Regarding `C[C@H](NS(=O)(=O)c1cnc(-c2c(C#N)c3ccc(OC(F)F)cc3n2-c2ccccc2)nc1)C(F)(F)F` [compound 611, 2-[3-cyano-6-(difluoromethoxy)-1-phenyl-1H-indol-2-yl]-N-[(2S)-1,1,1-trifluoropropan-2-yl]pyrimidine-5-sulfonamide], the melting point is 216 to 218 °C. The pIC50 in data set [1] was > 6.30.
Take `Cc1ccc2c(C#N)c(-c3ncc(S(=O)(=O)NC(CF)CF)cn3)n(C3CCCCC3)c2c1` [compound 241, 2-(3-cyano-1-cyclohexyl-6-methyl-1H-indol-2-yl)-N-(1,3-difluoropropan-2-yl)pyrimidine-5-sulfonamide]: the melting point was in the range of 225 to 230 °C. Further, the pIC50 in data set [1] is > 6.30.
The like results for `Cc1cc2c(cc1F)c(C(N)=O)c(-c1ccc(S(=O)(=O)N[C@H](C)C(F)(F)F)cn1)n2C1CCOCC1` [compound 767, 5-fluoro-6-methyl-1-(tetrahydro-2H-pyran-4-yl)-2-(5-{[(2R)-1,1,1-trifluoropropan-2-yl]sulfamoyl}pyridin-2-yl)-1H-indole-3-carboxamide] were, in that order, 258 to 262 °C and > 6.30.
The corresponding values for `Cc1ccc2c(c1)c(C#N)c(-c1ncc(S(=O)(=O)N[C@@H](C)C3CC3)cn1)n2C1CCC1` [compound 545, 2-(3-cyano-1-cyclobutyl-5-methyl-1H-indol-2-yl)-N-[(1S)-1-cyclopropylethyl]pyrimidine-5-sulfonamide] are 168 to 171 °C and > 6.30.
`Cc1ccc2c(c1)c(C#N)c(-c1ccc(S(=O)(=O)N[C@@H](C)C(F)(F)F)cn1)n2C1CCCCC1` [compound 560, 6-(3-cyano-1-cyclohexyl-5-methyl-1H-indol-2-yl)-N-[(2S)-1,1,1-trifluoropropan-2-yl]pyridine-3-sulfonamide] displayed a melting point of 175 to 180 °C. Besides, the pIC50 in data set [1] was > 6.30.
`Cc1cc2c(cc1F)c(C(=O)N(C)C)c(-c1ccc(S(=O)(=O)N[C@@H](C)C(F)(F)F)cn1)n2C1CCCC1` [compound 783, 1-cyclopentyl-5-fluoro-N,N,6-trimethyl-2-(5-{[(2S)-1,1,1-trifluoropropan-2-yl]sulfamoyl}pyridin-2-yl)-1H-indole-3-carboxamide] had a melting point of 278 to 280 °C. Also, the pIC50 in data set [1] was 5.30 to 5.70.
The like results for `Cc1ccc2c(C#N)c(-c3ccc(S(=O)(=O)NC(CF)CF)cn3)n(C3CCCC3)c2c1` [compound 44, 6-(3-cyano-1-cyclopentyl-6-methyl-1H-indol-2-yl)-N-(1,3-difluoropropan-2-yl)pyridine-3-sulfonamide] were, in that order, 144 to 145 °C and > 6.30.
On to `N#Cc1c(-c2ccc(S(=O)(=O)Nc3ccccc3)cn2)n(C2CCC2)c2cc(OC(F)F)c(F)cc12` [compound 791, 6-[3-cyano-1-cyclobutyl-6-(difluoromethoxy)-5-fluoro-1H-indol-2-yl]-N-phenylpyridine-3-sulfonamide], for which the melting point was in the range of 178 to 179 °C. Besides, the pIC50 in data set [1] was 5.30 to 5.70.
The corresponding values for `C[C@H](NS(=O)(=O)c1ccc(-c2c(C#N)c3cc(F)c(C4CC4)cc3n2C2CCCC2)nc1)C(F)(F)F` [compound 661, 6-(3-cyano-1-cyclopentyl-6-cyclopropyl-5-fluoro-1H-indol-2-yl)-N-[(2S)-1,1,1-trifluoropropan-2-yl]pyridine-3-sulfonamide] are 189 to 190 °C and > 6.30.
For the molecule `Cc1ccc(-n2c(-c3ccc(S(=O)(=O)N[C@@H](C)C(F)(F)F)cn3)c(C#N)c3cc(F)c(C)cc32)nc1` [compound 885, 6-[3-cyano-5-fluoro-6-methyl-1-(5-methylpyridin-2-yl)-1H-indol-2-yl]-N-[(2S)-1,1,1-trifluoropropan-2-yl]pyridine-3-sulfonamide], the melting point was 250 to 254 °C. For the same molecule, the pIC50 in data set [1] was > 6.30.
`CCc1cc2c(cc1F)c(C#N)c(-c1ccc(S(=O)(=O)NC(C)(C)C)cn1)n2-c1ncccc1F` [compound 900, N-tert-butyl-6-[3-cyano-6-ethyl-5-fluoro-1-(3-fluoropyridin-2-yl)-1H-indol-2-yl]pyridine-3-sulfonamide] came in with a melting point of 200 to 203 °C. Moreover, the pIC50 in data set [1] was 5.70 to 6.30.
Turning to `N#Cc1c(-c2ncc(S(=O)(=O)NC(CF)CF)cn2)n(-c2ccc(F)cc2)c2cc(OC(F)F)ccc12` [compound 477, 2-[3-cyano-6-(difluoromethoxy)-1-(4-fluorophenyl)-1H-indol-2-yl]-N-(1,3-difluoropropan-2-yl)pyrimidine-5-sulfonamide], the melting point was in the range of 213 to 216 °C. Besides, the pIC50 in data set [1] is > 6.30.
Turning to `Cc1cc(F)c2c(C#N)c(-c3ccc(S(=O)(=O)N[C@@H](C)C(F)(F)F)cn3)n(C3CCCC3)c2c1` [compound 625, 6-(3-cyano-1-cyclopentyl-4-fluoro-6-methyl-1H-indol-2-yl)-N-[(2S)-1,1,1-trifluoropropan-2-yl]pyridine-3-sulfonamide], the melting point was 207 to 211 °C. Also, the pIC50 in data set [1] is > 6.30.
The corresponding values for `CCc1cc2c(cc1F)c(C(=O)O)c(-c1ncc(NS(=O)(=O)C(C)(C)C)cn1)n2C1CCCCC1` [compound 1028, 2-{5-[(tert-butylsulfonyl)amino]pyrimidin-2-yl}-1-cyclohexyl-6-ethyl-5-fluoro-1H-indole-3-carboxylic acid] are 236 to 237 °C and 5.30 to 5.70.

In general, pIC50 refers to −log10 of the IC50, conventionally taken in molar units. Broadly, the melting point is the temperature, or range, at which the solid turns liquid.
